Results taken from patent US10344025B2, “GLS1 inhibitors for treating disease” (Board of Regents, The University of Texas System, priority 2014, dated 2019).

Molecular target: purified recombinant human GAC (GLS1) (Homo sapiens (Human), UniProt O94925)
Assay: GLS1 Enzymatic Activity Assay (dual-coupled enzymatic assay, resorufin/Amplex UltraRed readout);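 note: glutamate from GAC coupled via glutamate oxidase and peroxidase to resorufin, read as fluorescence (ex 530, em 590 nm) kinetically or at 20 min, four-parameter logistic IC50 fit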
Type: biochemical
Conditions: not given

purified recombinant human GAC (GLS1), sequence (O94925 other isoform, or with tags, fused parts or gaps): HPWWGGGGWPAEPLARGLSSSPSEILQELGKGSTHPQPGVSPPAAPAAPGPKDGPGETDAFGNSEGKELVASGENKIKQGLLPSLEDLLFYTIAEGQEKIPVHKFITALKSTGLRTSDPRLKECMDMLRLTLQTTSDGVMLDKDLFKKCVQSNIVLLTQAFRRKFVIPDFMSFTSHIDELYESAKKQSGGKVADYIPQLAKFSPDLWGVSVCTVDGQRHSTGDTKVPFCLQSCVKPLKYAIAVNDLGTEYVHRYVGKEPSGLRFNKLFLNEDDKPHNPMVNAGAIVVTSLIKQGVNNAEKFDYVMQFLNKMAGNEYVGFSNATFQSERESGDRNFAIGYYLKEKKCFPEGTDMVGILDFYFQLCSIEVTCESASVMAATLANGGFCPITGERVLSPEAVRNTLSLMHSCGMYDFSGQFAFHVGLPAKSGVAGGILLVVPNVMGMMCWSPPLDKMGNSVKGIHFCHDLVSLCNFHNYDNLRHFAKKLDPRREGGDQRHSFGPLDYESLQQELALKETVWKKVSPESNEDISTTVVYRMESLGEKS

Row | SMILES | IC50 [nM]
1 | O=C(CC1CC1)Nc1cn(CCCCn2cc(C(=O)NCC3CCCC3)nn2)nn1 [Example 287, N-(cyclopentylmethyl)-1-{4-[4-(2-cyclopropylacetamido)-1H-1,2,3-triazol-1-yl]butyl}-1H-1,2,3-triazole-4-carboxamide] | 500 to 5000
2 | CC(C)NC(=O)c1nnc(CCCCn2cc(C(=O)NCc3ccccc3)nn2)s1 [Example 38, 5-{4-[4-(benzylcarbamoyl)-1H-1,2,3-triazol-1-yl]butyl}-N-(propan-2-yl)-1,3,4-thiadiazole-2-carboxamide] | 500 to 5000
3 | CS(=O)(=O)NCc1cn(CCCCn2cc(C(=O)NCc3cccc(OC(F)(F)F)c3)nn2)nn1 [Example 9, 1-(4-(4-(Methylsulfonamidomethyl)-1H-1,2,3-triazol-1-yl)butyl)-N-(3-(trifluoromethoxy)benzyl)-1H-1,2,3-triazole-4-carboxamide] | 500 to 5000
4 | O=C(CC1CC1)Nc1cn(CCCCn2cc(C(=O)NCc3ccccn3)nn2)nn1 [Example 278, 1-{4-[4-(2-cyclopropylacetamido)-1H-1,2,3-triazol-1-yl]butyl}-N-(pyridin-2-ylmethyl)-1H-1,2,3-triazole-4-carboxamide] | 500 to 5000
5 | O=C(CC1CCCC1)Nc1cn(CCCCn2cc(C(=O)NCC3CCCCC3)nn2)nn1 [Example 282, N-(cyclohexylmethyl)-1-{4-[4-(2-cyclopentylacetamido)-1H-1,2,3-triazol-1-yl]butyl}-1H-1,2,3-triazole-4-carboxamide] | 500 to 5000
6 | O=C(Cc1ccccc1)Nc1nnc(CCCCn2cc(C(=O)NCCN3CCC(O)CC3)nn2)s1 [Example 14, N-[2-(4-hydroxypiperidin-1-yl)ethyl]-1-{4-[5-(2-phenylacetamido)-1,3,4-thiadiazol-2-yl]butyl}-1H-1,2,3-triazole-4-carboxamide] | 500 to 5000
7 | O=C(CN1CC(F)C1)Nc1cn(CCCCn2cc(C(=O)NCc3cc(Cl)ccc3F)nn2)nn1 [Example 349, N-[(5-chloro-2-fluorophenyl)methyl]-1-(4-{4-[2-(3-fluoroazetidin-1-yl)acetamido]-1H-1,2,3-triazol-1-yl}butyl)-1H-1,2,3-triazole-4-carboxamide] | 100 to 500
8 | Cc1ccc(CNC(=O)c2nnc(CCCCn3cc(C(=O)NCc4ccccn4)nn3)s2)cn1 [Example 67, N-[(6-methylpyridin-3-yl)methyl]-5(4-{4-[(pyridin-2-ylmethyl)carbamoyl]-1H-1,2,3-triazol-1-yl}butyl)-1,3,4-thiadiazole-2-carboxamide] | 100 to 500
9 | O=C(CC1CCCCC1)Nc1cn(CCCCn2cc(C(=O)NCC3CCCC3)nn2)nn1 [Example 289, 1-{4-[4-(2-cyclohexylacetamido)-1H-1,2,3-triazol-1-yl]butyl}-N-(cyclopentylmethyl)-1H-1,2,3-triazole-4-carboxamide] | 500 to 5000
10 | Cc1ccc(CNC(=O)c2nnc(CCCCn3cc(C(=O)NCC4CC4)nn3)s2)cn1 [Example 70, 5-(4-{4-[(cyclopropylmethyl)carbamoyl]-1H-1,2,3-triazol-1-yl}butyl)-N-[(6-methylpyridin-3-yl)methyl]-1,3,4-thiadiazole-2-carboxamide] | 500 to 5000
11 | Cc1ccc(CNC(=O)c2cn(CCC(F)Cn3cc(NC(=O)CN4CC(F)C4)nn3)nn2)cn1 (centres unmarked) [Example 374, 1-(3-fluoro-4-{4-[2-(3-fluoroazetidin-1-yl)acetamido]-1H-1,2,3-triazol-1-yl}butyl)-N-[(6-methylpyridin-3-yl)methyl]-1H-1,2,3-triazole-4-carboxamide] | 100 to 500
12 | O=C(Cc1ccccn1)Nc1cn(CC(F)CCn2cc(C(=O)NCc3ccccn3)nn2)nn1 (centres unmarked) [Example 362, 1-(3-fluoro-4-{4-[2-(pyridin-2-yl)acetamido]-1H-1,2,3-triazol-1-yl}butyl)-N-(pyridin-2-ylmethyl)-1H-1,2,3-triazole-4-carboxamide] | 500 to 5000
13 | O=C(CC1CCCC1)Nc1cn(CCCCn2cc(C(=O)NCC3CC3)nn2)nn1 [Example 304, 1-{4-[4-(2-cyclopentylacetamido)-1H-1,2,3-triazol-1-yl]butyl}-N-(cyclopropylmethyl)-1H-1,2,3-triazole-4-carboxamide] | 500 to 5000

Test system: A549 cells
Assay: Proliferation Assay (A549 viability, Cell Titer Fluor, 72 hours)
Type: cell-based
Conditions: Homo sapiens, A549, 72 h
Experimental: A549 cells were routinely maintained in RPMI 1640 media (Gibco catalog number 11875-093) supplemented with 10% dialyzed fetal bovine serum using a humidified incubator (37° C., 5% CO2 and ambient O2). In preparation for the viability assay, cells were inoculated into 384-well black CulturPlates (Perkin Elmer) at a density of 1000 cells/well in a volume of 40 uL. Following a 24-hour incubation at 37° C., 5% CO2 and ambient O2, cells were treated with compound (10 uL) in a final DMSO concentration of 0.5% (v/v). The microplates were then incubated for 72 hours (37° C., 5% CO2 and ambient O2). Cell Titer Fluor (Promega) was subsequently added (10 uL of 6× reagent) and mixed for 15 minutes at room temperature. The plates were then incubated for 30 minutes (37° C., 5% CO2 and ambient O2) and fluorescence was subsequently read on the Perkin Elmer Envision plate reader. IC50 values were calculated using a four-parameter logistic curve fit.
Non-limiting examples include the following compounds and pharmaceutically acceptable salts thereof. […] “ND” indicates no data.

Row | SMILES | EC50 [nM]
14 | CNC(=O)c1cn(CCCCc2ccc(NC(=O)Cc3cc(OC4CC(F)(F)C4)ccn3)nn2)nn1 [Example 261, 1-(4-(6-(2-(4-(3,3-difluorocyclobutoxy)pyridin-2-yl)acetamido)pyridazin-3-yl)butyl)-N-methyl-1H-1,2,3-triazole-4-carboxamide] | < 100
15 | CC(C)NC(=O)c1nnc(CCCCn2cc(C(=O)NCc3cccc(OC(F)(F)F)c3)nn2)s1 [Example 43, N-(propan-2-yl)-5-{4-[4-({[3-(trifluoromethoxy)phenyl]methyl}carbamoyl)-1H-1,2,3-triazol-1-yl]butyl}-1,3,4-thiadiazole-2-carboxamide] | 100 to 500
16 | CNC(=O)c1cn(CCCCc2ccc(NC(=O)Cc3cncc(OC4CC(F)(F)C4)c3)nn2)nn1 [Example 202, 1-(4-(6-(2-(5-(3,3-difluorocyclobutoxy)pyridin-3-yl)acetamido)pyridazin-3-yl)butyl)-N-methyl-1H-1,2,3-triazole-4-carboxamide] | 100 to 500

Continued, values first:

Row | EC50 [nM] | SMILES
17 | 100 to 500 | CNC(=O)c1cn(CCCCc2ccc(NC(=O)Cc3cncc(Br)c3)nn2)nn1 [Example 546, 1-(4-{6-[2-(5-bromopyridin-3-yl)acetamido]pyridazin-3-yl}butyl)-N-methyl-1H-1,2,3-triazole-4-carboxamide]
18 | < 100 | CNC(=O)c1cn(CC(F)CCc2ccc(NC(=O)Cc3cc(OC(C)C(F)(F)F)ccn3)nn2)nn1 (centres unmarked) [Example 266, 1-(2-fluoro-4-(6-(2-(4-((1,1,1-trifluoropropan-2-yl)oxy)pyridin-2-yl)acetamido)pyridazin-3-yl)butyl)-N-methyl-1H-1,2,3-triazole-4-carboxamide]
19 | 500 to 5000 | CNC(=O)c1cn(CCCCc2ccc(NC(=O)Cc3cccnc3)nn2)nn1 [Example 541, N-methyl-1-(4-{6-[2-(pyridin-3-yl)acetamido]pyridazin-3-yl}butyl)-1H-1,2,3-triazole-4-carboxamide]
20 | 100 to 500 | CNC(=O)c1cn(C[C@H](F)CCc2ccc(NC(=O)Cc3ccccn3)nn2)nn1 [Example 254, (R)-1-(2-fluoro-4-(6-(2-(pyridin-2-yl)acetamido)pyridazin-3-yl)butyl)-N-methyl-1H-1,2,3-triazole-4-carboxamide]
21 | 100 to 500 | CNC(=O)c1cn(CCCCc2ccc(NC(=O)Cc3cccc(OC(F)(F)F)c3)nn2)nn1 [Example 157, N-methyl-1-(4-(6-(2-(3-(trifluoromethoxy)phenyl)acetamido)pyridazin-3-yl)butyl)-1H-1,2,3-triazole-4-carboxamide]
22 | 100 to 500 | CNC(=O)c1cn(C[C@@H](F)CCc2ccc(NC(=O)Cc3ccccn3)nn2)nn1 [Example 256, (S)-1-(2-fluoro-4-(6-(2-(pyridin-2-yl)acetamido)pyridazin-3-yl)butyl)-N-methyl-1H-1,2,3-triazole-4-carboxamide]
23 | 100 to 500 | COCCNC(=O)c1cn(CCCCc2ccc(NC(=O)Cc3cccc(OC(F)(F)F)c3)nn2)nn1 [Example 551, N-(2-methoxyethyl)-1-[4-(6-{2-[3-(trifluoromethoxy)phenyl]acetamido}pyridazin-3-yl)butyl]-1H-1,2,3-triazole-4-carboxamide]
